The results in this text go back to ChEMBL document CHEMBL1141466, “Potent memapsin 2 (beta-secretase) inhibitors: design, synthesis, protein-ligand X-ray structure, and in vivo evaluation” (Bioorg Med Chem Lett, 2008).

In assay [1] the target is T1, Beta-secretase 1 (Homo sapiens, UniProt P56817).
Description: Binding affinity to recombinant memapsin 2
Assay [2] concerns the target T1, Beta-secretase 1. The source holds these as a separate data set.
Description: Inhibition of memapsin 2 expressed in CHO cells

T1 sequence (P56817 whole entry): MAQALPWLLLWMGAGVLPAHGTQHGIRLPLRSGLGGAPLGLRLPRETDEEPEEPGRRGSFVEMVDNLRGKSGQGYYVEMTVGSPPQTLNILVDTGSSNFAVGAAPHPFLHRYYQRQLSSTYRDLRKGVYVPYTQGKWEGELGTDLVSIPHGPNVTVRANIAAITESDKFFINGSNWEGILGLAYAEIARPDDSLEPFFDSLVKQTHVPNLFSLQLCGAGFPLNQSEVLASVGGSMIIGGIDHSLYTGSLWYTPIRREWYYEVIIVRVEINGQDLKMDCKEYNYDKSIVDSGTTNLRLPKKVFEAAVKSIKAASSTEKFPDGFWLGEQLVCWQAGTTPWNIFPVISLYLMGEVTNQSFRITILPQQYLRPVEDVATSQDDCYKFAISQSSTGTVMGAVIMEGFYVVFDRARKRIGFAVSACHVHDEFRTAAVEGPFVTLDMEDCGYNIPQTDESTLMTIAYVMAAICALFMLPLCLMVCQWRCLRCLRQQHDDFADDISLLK

By Ki is commonly meant a measure of affinity in units of concentration, obtained from inhibition or displacement. `COc1cccc(CNC[C@@H](O)[C@H](Cc2ccccc2)NC(=O)c2cc(C(=O)NCc3nc(C)oc3C)cc(N(C)S(C)(=O)=O)c2)c1` came in with a Ki at Beta-secretase 1 [1] of 552 nM. Same read-out and setting: the value for `COc1cccc(CNC[C@@H](O)[C@H](Cc2ccccc2)NC(=O)c2cc(C(=O)NC(C)c3nc(C)oc3C)cc(N(C)S(C)(=O)=O)c2)c1` (some centres not stated) was 894 nM.

A word on the IC50: it is the point on the concentration scale where inhibition reaches its midpoint. Low values mean higher potency, high ones lower potency. Take `C[C@@H](NC(=O)c1cc(C(=O)N[C@@H](Cc2ccccc2)[C@H](O)CNCc2ccc3ccn(S(C)(=O)=O)c3c2)cc(N(C)S(C)(=O)=O)c1)c1ccccc1`: on Beta-secretase 1 [1], the Ki was 27 nM. This molecule also showed an IC50 against Beta-secretase 1 [2] of 200 nM.

Regarding `CC(C)NC(=O)[C@@H](NC[C@@H](O)[C@H](Cc1ccccc1)NC(=O)c1cc(C(=O)N[C@H](C)c2ccccc2)cc(N(C)S(C)(=O)=O)c1)C(C)C`, affinity at Beta-secretase 1 [1] was put at a Ki of 564 nM. On the same count and under the same terms, the value for `COc1cccc(CNC[C@@H](O)[C@H](CC(C)C)NC(=O)c2cc(C(=O)N[C@H](C)c3ccccc3)cc(N(C)S(C)(=O)=O)c2)c1` was 916 nM; that for `COc1cccc(CNC[C@@H](O)[C@H](Cc2ccccc2)NC(=O)[C@H](CS(C)(=O)=O)NC(=O)OCc2nc(C)oc2C)c1` was 15000 nM. In turn, `CC(C)NC[C@@H](O)[C@H](Cc1ccccc1)NC(=O)c1cc(C(=O)N[C@H](C)c2ccccc2)cc(N(C)S(C)(=O)=O)c1` returned a Ki on Beta-secretase 1 [1] of 425 nM. The same molecule registered an IC50 against Beta-secretase 1 [2] of 1100 nM. The matching figures for `C[C@@H](NC(=O)c1cc(C(=O)N[C@@H](Cc2ccccc2)[C@H](O)CNCc2ccc3cc[nH]c3c2)cc(N(C)S(C)(=O)=O)c1)c1ccccc1`: 230 nM and 620 nM. In the case of `Cc1nc(COC(=O)N[C@@H](CS(C)(=O)=O)C(=O)N[C@@H](CC(C)C)[C@@H](O)C[C@@H](C)C(=O)N[C@H](C(=O)NC(C)(C)C)C(C)C)c(C)o1`, the affinity on Beta-secretase 1 [1] corresponds to a Ki of 0.12 nM.
